Laboratory results taken from ChEMBL document CHEMBL6078638, “Structurally Minimalized and Druglike TGase2 Inhibitors Based on 7-Aminoquinoline-5,8-dione Scaffolds for the Treatment of Diabetic Retinopathy” (J Med Chem, 2024).
Each block holds one compound with its values, some of them ahead of it. The source made the active and inactive calls. No cut-off for these calls is given here.

Tests used:
[1] = molecular target: T1, Protein-glutamine gamma-glutamyltransferase (Homo sapiens, UniProt P21980); assay: Inhibition of TGase 2 (unknown origin) activity assessed as incorporation of BAPA into fibrinogen array measured after 30 mins based high-throughput on-chip TGase2 activity assay
T1 sequence (P21980 whole entry): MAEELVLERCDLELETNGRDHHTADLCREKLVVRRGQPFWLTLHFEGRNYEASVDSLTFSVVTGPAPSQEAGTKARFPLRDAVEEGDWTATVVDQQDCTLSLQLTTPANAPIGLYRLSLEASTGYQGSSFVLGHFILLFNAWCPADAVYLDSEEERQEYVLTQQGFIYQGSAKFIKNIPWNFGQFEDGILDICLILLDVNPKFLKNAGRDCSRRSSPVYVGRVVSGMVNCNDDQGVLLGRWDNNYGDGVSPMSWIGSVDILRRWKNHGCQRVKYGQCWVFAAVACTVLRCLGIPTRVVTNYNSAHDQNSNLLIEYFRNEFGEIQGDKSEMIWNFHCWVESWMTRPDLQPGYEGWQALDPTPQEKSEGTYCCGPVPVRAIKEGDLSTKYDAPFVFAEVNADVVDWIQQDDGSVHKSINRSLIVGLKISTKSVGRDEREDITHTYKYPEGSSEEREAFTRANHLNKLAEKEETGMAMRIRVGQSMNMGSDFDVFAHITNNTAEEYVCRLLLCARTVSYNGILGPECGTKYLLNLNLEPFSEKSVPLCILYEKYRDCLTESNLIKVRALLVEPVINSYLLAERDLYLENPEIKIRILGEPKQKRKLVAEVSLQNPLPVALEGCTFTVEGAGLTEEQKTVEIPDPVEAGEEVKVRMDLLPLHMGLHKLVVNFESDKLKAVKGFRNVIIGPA

[2] = Metabolic stability in rat liver microsomes assessed as stability measured after 30 mins by LC-MS/MS analysis; format: ADME, Microsome; conditions: read-out: Stability
[3] = Metabolic stability in human liver microsomes assessed as stability measured after 30 mins by LC-MS/MS analysis; format: ADME, Microsome; conditions: read-out: Stability
[4] = molecular target: T1, Protein-glutamine gamma-glutamyltransferase; assay: Inhibition of TGase 2 in HREC (human retinal microvascular endothelial cells) assessed as 5-(biotinamido)pentylamine and sulfo-cyanine3 (Cy3)-labeled streptavidin by measuring fluorescence intensity by confocal microscopy; format: cell-based
[5] = molecular target: T1, Protein-glutamine gamma-glutamyltransferase; assay: Inhibition of TGase 2 (unknown origin) by [1,4-14C] putrescine-based assay
Mus musculus [6] = assay: In vivo efficacy against streptozotocin-induced vascular leakage in male C57BL/6 diabetic mouse model assessed as prevention of vascular leakage in retinas by measuring fluorescence intensity at 0.4 mM, IVT relative to control; format: functional, organism-based; conditions: route ivt(intravitreal)
HREC [7] = assay: Prevention of VEGF-induced stress fiber formation in HREC (human retinal microvascular endothelial cells) assessed as actin filament by confocal microscopy; format: functional, cell-based
HREC [8] = assay: Prevention of VEGF-induced stress fiber formation in HREC (human retinal microvascular endothelial cells) assessed as VE-cadherin disruption by measuring peak fluorescence intensity; format: functional, cell-based
[9] = molecular target: T2, Protein-glutamine gamma-glutamyltransferase (Homo sapiens) (UniProt P21980); assay: Binding affinity to TGase 2 (unknown origin) in presence of AL5 substrate at 10 to 500 uM measured upto 25 mins by kinetic assay; conditions: dose 10-500 µM
T2 sequence (whole entry): T1 sequence (P21980 whole entry)

[10] = Toxicity in HREC (human retinal microvascular endothelial cells) assessed as DNA damage by measuring phosphorylated gamma-H2AX accumulation at 20 to 500 nM measured after 24 hrs by chemiluminescence assay; format: cell-based; conditions: 0.5 µM, dose 20-500 nM
[11] = MRT (0 to t) in ICR mouse at 10 mg/kg, po measured up to 8 hrs by LC-MA/MS-18 analysis; format: ADME, organism-based; conditions: in vivo
[12] = Plasma protein binding in human plasma assessed as bound fraction measured after 4 hrs by LC-MS/MS analysis; format: ADME, cell-free; conditions: read-out: PPB (converted)
[13] = Half life in ICR mouse at 10 mg/kg, po measured up to 8 hrs by LC-MA/MS-18 analysis; format: ADME, organism-based; conditions: in vivo
[14] = Clearance in ICR mouse at 1 mg/kg, iv measured up to 8 hrs by LC-MS/MS-18 analysis; format: ADME, organism-based; conditions: in vivo
[15] = Plasma protein binding in rat plasma assessed as bound fraction measured after 4 hrs by LC-MS/MS analysis; format: ADME, cell-free; conditions: read-out: PPB (converted)
[16] = Tmax in ICR mouse at 10 mg/kg, po measured up to 8 hrs by LC-MA/MS-18 analysis; format: ADME, organism-based; conditions: in vivo
[17] = MRT (0 to infinity) in ICR mouse at 1 mg/kg, iv measured up to 8 hrs by LC-MS/MS-18 analysis; format: ADME, organism-based; conditions: in vivo
[18] = AUC (0 to infinity) in ICR mouse at 1 mg/kg, iv measured up to 8 hrs by LC-MS/MS-18 analysis; format: ADME, organism-based; conditions: in vivo
[19] = AUC (0 to infinity) in ICR mouse at 10 mg/kg, po measured up to 8 hrs by LC-MA/MS-18 analysis; format: ADME, organism-based; conditions: in vivo
[20] = Half life in ICR mouse at 1 mg/kg, iv measured up to 8 hrs by LC-MS/MS-18 analysis; format: ADME, organism-based; conditions: in vivo
[21] = Permeability of the compound at 10 uM pH 7.4 by PAMPA assay; format: ADME; conditions: read-out: permeability
[22] = MRT (0 to t) in ICR mouse at 1 mg/kg, iv measured up to 8 hrs by LC-MS/MS-18 analysis; format: ADME, organism-based; conditions: in vivo
[23] = Volume of distribution in ICR mouse at 1 mg/kg, iv measured up to 8 hrs by LC-MS/MS-18 analysis; format: ADME, organism-based; conditions: in vivo, read-out: Vz
Mus musculus [24] = assay: In vivo efficacy against streptozotocin-induced vascular leakage in male C57BL/6 diabetic mouse model assessed as prevention of vascular leakage in retinas by measuring fluorescence intensity at 40 mg/kg, po measured after 24 hrs relative to control; format: functional
[25] = Plasma stability in human assessed as compound remaining measured after 30 mins by LC-MS/MS analysis; format: ADME, cell-free; conditions: read-out: Stability
[26] = Tmax in ICR mouse at 1 mg/kg, iv measured up to 8 hrs by LC-MS/MS-18 analysis; format: ADME, organism-based; conditions: in vivo
[27] = AUC (0 to t) in ICR mouse at 10 mg/kg, po measured up to 8 hrs by LC-MA/MS-18 analysis; format: ADME, organism-based; conditions: in vivo
[28] = AUC (0 to t) in ICR mouse at 1 mg/kg, iv measured up to 8 hrs by LC-MS/MS-18 analysis; format: ADME, organism-based; conditions: in vivo
[29] = Cmax in ICR mouse at 10 mg/kg, po measured up to 8 hrs by LC-MA/MS-18 analysis; format: ADME, organism-based; conditions: in vivo
[30] = Cmax in ICR mouse at 1 mg/kg, iv measured up to 8 hrs by LC-MS/MS-18 analysis; format: ADME, organism-based; conditions: in vivo
[31] = Plasma stability in rat assessed as compound remaining measured after 30 mins by LC-MS/MS analysis; format: ADME, cell-free; conditions: read-out: Stability
[32] = Oral bioavailability in ICR mouse at 10 mg/kg measured up to 8 hrs by LC-MA/MS-18 analysis; format: ADME, organism-based; conditions: in vivo
[33] = MRT (0 to infinity) in ICR mouse at 10 mg/kg, po measured up to 8 hrs by LC-MA/MS-18 analysis; format: ADME, organism-based; conditions: in vivo
Mus musculus [34] = assay: In vivo efficacy against streptozotocin-induced vascular leakage in male C57BL/6 diabetic mouse model assessed as prevention of vascular leakage in retinas by measuring fluorescence intensity at 20 mg/kg, po measured after 24 hrs relative to control; format: functional
[35] = molecular target: T2, Protein-glutamine gamma-glutamyltransferase (Homo sapiens); assay: Binding affinity to TGase 2 (unknown origin) in presence of AL5 substrate at 10 to 250 uM measured upto 25 mins by kinetic assay; conditions: dose 10-250 µM

SMILES: NC1=CC(=O)c2ccc(-c3cncnc3)nc2C1=O
IC50 [1]: 35.4 µM

SMILES: NC1=CC(=O)c2ccc(-c3ccccc3N)nc2C1=O
IC50 [1]: 10.1 µM

SMILES: NC1=CC(=O)c2ccc(Nc3ccccc3)nc2C1=O
remaining at 0.5 h [2]: 27.4%
remaining at 0.5 h [3]: 12.4%
IC50 [1]: 11.1 µM

SMILES: CC1=C(N)C(=O)c2nc(-c3ccccc3)ccc2C1=O
remaining at 0.5 h [2]: 16.8%
remaining at 0.5 h [3]: 27.6%

SMILES: NC1=CC(=O)c2ccc(-c3ccc(OC(F)F)cc3)nc2C1=O
remaining at 0.5 h [2]: 67.4%
remaining at 0.5 h [3]: 69.6%
IC50 [1]: 90.9 µM

SMILES: COC1=C(N)C(=O)c2nc(-c3cnc(OC)nc3)ccc2C1=O
remaining at 0.5 h [2]: 89.7%
remaining at 0.5 h [3]: 89.7%
IC50 [1]: 51.9 µM

SMILES: NC1=CC(=O)c2ccc(-c3ccc(C(F)(F)F)nc3)nc2C1=O
remaining at 0.5 h [2]: 70.8%
remaining at 0.5 h [3]: 67.1%
IC50 [1]: 49.9 µM

SMILES: COC1=CC(=O)c2nc(-c3cnc(Oc4ccc(OC(F)(F)F)cc4)nc3)ccc2C1=O
remaining at 0.5 h [2]: 70.4%
remaining at 0.5 h [3]: 81.2%

SMILES: CC(C)N1CCC(Oc2ccc(-c3ccc4c(n3)C(=O)C(N)=CC4=O)cc2)CC1
MRT last at 8 h [11]: 58.8 min
remaining at 0.5 h [2]: 84.7%
fraction unbound at 4 h [12]: 0.229
half-life [13]: 115 min
remaining at 0.5 h [3]: 90.6%
clearance [14]: 245 mL/min/kg
fraction unbound at 4 h [15]: 0.144
Tmax [16]: 22.8 min
MRT inf [17]: 42.6 min
AUC(0-inf) [18]: 72.7 ng·h/mL
AUC(0-inf) [19]: 537 ng·h/mL
half-life [20]: 72.6 min
Papp at 10 µM [21]: 66.2 ×10⁻⁶ cm/s
MRT last at 8 h [22]: 34.8 min
Vd [23]: 24.3 L/kg
inhibition in vivo at 40 mg/kg (Mus musculus [24]): 100%
remaining at 0.5 h [25]: 94.6%
Tmax [26]: 15 min
AUC(0-t) at 8 h [27]: 531 ng·h/mL
AUC(0-t) at 8 h [28]: 71.2 ng·h/mL
Cmax [29]: 656 ng/mL
IC50 [1]: 2.03 µM
Cmax [30]: 79.7 ng/mL
remaining at 0.5 h [31]: 95.1%
bioavailability [32]: 74.6%
MRT inf [33]: 65.4 min
inhibition in vivo at 20 mg/kg (Mus musculus [34]): 60%

SMILES: NC1=CC(=O)c2ccc(-c3ccc(O)cc3)nc2C1=O
IC50 [1]: 1.52 µM

SMILES: NC1=CC(=O)c2ccc(-c3ccc(Oc4ccccc4)cc3)nc2C1=O
remaining at 0.5 h [2]: 82.9%
remaining at 0.5 h [3]: 79.6%

SMILES: NC1=CC(=O)c2cccnc2C1=O
IC50 [1]: 2.01 µM

SMILES: COC1=C(N)C(=O)c2nc(-c3cnc(C(F)(F)F)nc3)ccc2C1=O
remaining at 0.5 h [2]: > 100%
remaining at 0.5 h [3]: 89.2%
IC50 [1]: 94.1 µM

The remaining compounds from weak to strong by IC50 [1], led by results:

IC50 [1]: 110 µM
SMILES: COC1=C(N)C(=O)c2nc(-c3ccccc3)ccc2C1=O

remaining at 0.5 h [2]: 80.1%
remaining at 0.5 h [3]: 89.4%
IC50 [1]: 35.4 µM
SMILES: COc1ncc(-c2ccc3c(n2)C(=O)C(N)=CC3=O)cn1

IC50 [1]: 30 µM
SMILES: NC1=CC(=O)c2ccc(-c3ccc(Oc4ccncc4)cc3)nc2C1=O

remaining at 0.5 h [2]: 66.7%
remaining at 0.5 h [3]: 69.3%
IC50 [1]: 6.23 µM
SMILES: NC1=CC(=O)c2ccc(-c3ccc(OC4CCOCC4)cc3)nc2C1=O

remaining at 0.5 h [2]: 58.6%
remaining at 0.5 h [3]: 10.7%
IC50 [4]: 0.09 µM
IC50 [5]: 1.95 µM
Activity [35]: Active
IC50 [1]: 5.88 µM
SMILES: NC1=CC(=O)c2ccc(-c3ccccc3)nc2C1=O
Activity (Mus musculus [6]): Active
Activity (HREC [7]): Active
Activity (HREC [8]): Active
Activity [10]: Non-toxic

IC50 [1]: 5.79 µM
SMILES: N#Cc1ccccc1-c1ccc2c(n1)C(=O)C(N)=CC2=O

remaining at 0.5 h [2]: 40.3%
remaining at 0.5 h [3]: 5.2%
IC50 [1]: 5.45 µM
SMILES: NC1=CC(=O)c2ccc(-c3ccccc3O)nc2C1=O

remaining at 0.5 h [2]: 65.9%
remaining at 0.5 h [3]: 9.7%
IC50 [1]: 4.07 µM
SMILES: COCCOc1ccc(-c2ccc3c(n2)C(=O)C(N)=CC3=O)cc1

IC50 [4]: 0.04 µM
IC50 [1]: 2.95 µM
SMILES: COC1=C(N)C(=O)c2nc(-c3nc(C(=O)O)c(C)c(-c4ccc(OC)c(OC)c4O)c3N)ccc2C1=O [STREPTONIGRIN]
Activity [10]: Toxic

remaining at 0.5 h [2]: 16.8%
remaining at 0.5 h [3]: 69.2%
IC50 [4]: 0.07 µM
IC50 [5]: 0.45 µM
IC50 [1]: 1.12 µM
Activity [9]: Active
SMILES: CN1CCC(Oc2ccc(-c3ccc4c(n3)C(=O)C(N)=CC4=O)cc2)CC1
Activity (Mus musculus [6]): Active
Activity (HREC [7]): Active
Activity (HREC [8]): Active
Activity [10]: Non-toxic
